Test results reported in patent US8476290B2, “Compound having spiro-bonded cyclic group and use thereof” (Ono Pharmaceutical Co., Ltd., priority 2009, dated 2013).

Key:
CXCR4 = biological target: T1, CXCR4 (Homo sapiens, UniProt P61073); experiment: Inhibition of binding human SDF-1 to CEM cells; settings: 125I-SDF-1, CEM cells, 4° C., 60 minutes; read-out: concentration showing 50% of an inhibition ratio
T1 construct: a human T cell strain in which CXCR4 is known to be expressed; endogenous in cells; host or cells: CEM cells (human T cell strain)
Experimental: Specifically, as a system of screening a compound that inhibits the binding between SDF-1 and CXCR4, for example a system of measuring the binding between iodine-labeled SDF-1 and a human T cell strain in which CXCR4 is known to be expressed is operable.
To human T cell strain CEM cells in a binding buffer (containing 2-[4-(2-Hydroxyethyl)-1-piperadinyl]ethansulfonic acid; HEPES and BSA), the test compound and ^125I-SDF-1 (PerkinElmer) were added and the mixture was incubated at 4° C. for 60 minutes. The reacted CEM cells were rapidly filtrated with a GF/B membrane filter plate (Packard) to adsorb. The plate was washed with phosphate buffered saline (hereinafter abbreviated to PBS) three times and then dried. Microscint+20 (Packard) was added thereto. An amount of the radioactivity bound to the CEM cells was measured using Top Count (Packard) and inhibition ratio (%) of the test compound was calculated according to the following equation: Inhibition={(Et−Ea)/(Et−Ec)}×100 [Equation 2] Et: Amount of radioactivity when the test compound is not added, Ec: Amount of radioactivity when non-radioactive SDF-1 (Pepro Tech) is added in an amount of 1,000 times as much as ^125I-SDF-1 as a test compound, and Ea: Amount of radioactivity when the test compound is added.

[1] = test system: X4-HIV-1 strains (for example, HIV-1NL4.3 strains); experiment: HIV infection inhibitory test using PBMC; type: cell-based; settings: human PBMC stimulated with PHA and IL-2, culture 7 days, culture supernatant
Experimental: Human PBMC (peripheral blood mononuclear cells) was isolated from HIV-negative healthy persons and subjected to stimulated culture in the presence of PHA (Phytohemagulutinin) and IL-2. Stimulated PBMC was inoculated in each of 96-well microplates and X^4-HIV-1 strains (for example, HIV-1NL4.3 strains) were exposed in the co-presence of a test compound. After culturing for 7 days, a reverse transcriptase activity of HIV-1 in the culture supernatant was measured and an inhibitory ratio (%) of the test compound was calculated by the following calculation formula, and a concentration (IC90 value) showing a 90% inhibitory ratio was determined. Inhibition={(Et−Ec)/Et}×100 [Equation 1] Et: reverse transcriptase activity value in the absence of a test compound Ec: reverse transcriptase activity value in the presence of a test compound

[2] = test system: CHL/IU (cell line derived from a Chinese hamster lung); experiment: Phospholipid accumulation measurement (phospholipidosis induction); type: cell-based; settings: NBD-PE, about 48 hours, at 400 μM (maximum treatment concentration); positive = 25% or more of maximum increase rate of amiodarone
Experimental: 100 µL/well as required (1 dose 2 wells) of cell suspension of CHL/IU (cell line derived from a Chinese hamster lung) (7×10^4 cells/mL) prepared by MEM (minimum essential medium) culture medium was added to a 96-well plate (96-well clear-bottom plate), and cultured for about 24 hours. After culture, the supernatant of the 96-well plate was removed, and the 100 μL/well compounds of each concentration dissolved and suspended in a minimum essential medium (MEM) including 25 μM nitrobenzoxazole dipalmitoyl phosphatidylethanolamine (NBD-PE) (hereinafter abbreviated to a NPD-PE medium) were added and treated for about 48 hours. The treatment concentrations of each compound were set to be 5, 50, 100, 200 and 400 μM. The positive control substance was set to be amiodarone hydrochloride, and the treatment concentrations were set to be 1.25, 2.5, 5, 10 and 20 μM. In addition, 5-well untreated controls (only MEM) and 5-well NBD-PE controls (made by means of adding a 1/100 amount of DMSO to the NBD-PE culture medium) were set per compound, and cultured in the same manner. After finishing the culture, the cultures were washed twice with PBS (−) 100 μL/well, and the MEM (100 μL) was added to all of the treatment wells including two empty wells for WST-1 background controls and cultured for about half an hour. The fluorescence intensities of each well were measured by using a microplate reader (manufactured by Molecular Devices Inc., SPECTRA max M2; the excitation wavelength 485 nm/fluorescence wavelength 535 nm). Using the average values of each dose×2 wells, a phospholipid increase rate (%) to the NBD-PE control was calculated by using the following calculating formula: Rate of increase of phospholipid accumulation (%)=100×{(test substance fluorescence intensity−non-treated control fluorescence intensity)/(NBD-PE control fluorescence intensity−non-treated control fluorescence intensity)} 3. Cytotoxicity Test 96-well plate measured in the phospholipid accumulation measurement was measured by means of Plate Reader (manufactured by Molecular Devices Inc., SPECTRA max M2) with the main wavelength of 450 nm and the correct wavelength of 690 nm to calculate a Pre value. An amount of 5 μL/well of Premix WST-1 was added to each of the 96-well plates by which Pre measurement was conducted. After culture for 2 to 4 hours, the 96-well plate was measured as well as the Pre measurement to calculate an Aft value. Then, the background control value was subtracted from the each measured value. A value which was calculated by subtracting the Pre value from the Aft value was used, then the cell growth rate (%) was calculated by using the following calculating formula: Cell growth rate (%)=100×{(test substance OD)/(NBD-PE control OD)} 4. Determination A test dose that indicated value of 25% or more of the maximum phospholipid accumulation increase rate of amiodarone which was the positive control was determined as positive. In addition, the dose whose cell growth rate was equal to or less than 50% in the cytotoxicity test was not used for determination of existence or nonexistence of a phospholipidosis inductive effect.

[3] = Blood kinetic test and time (T90) to maintain the IC90 value; type: in vivo, Crl:CD(SD) Rat; settings: time the plasma concentration stays at the PBMC IC90 value or more; rat, intravenous 1 mg/kg
Experimental: A test compound was weighed, dissolved in WellSolve (trade name; manufactured by Celeste Corporation)/water/physiological saline=1/9/10 which was heated at 60° C. and adjusted to 20 mg/mL. Thereafter, the test compound was diluted by 10 times with distilled water for injection, and further diluted by 2 times with physiological saline. Then, intravenous administration was performed by rapid single administration of an intravenously administered solution (1 mg/kg) from the tail vein of Crl:CD(SD) Rat (male, manufactured by CHARLES RIVER LABORATORIES JAPAN, INC). The administration is conducted under fasting conditions; water is freely ingested. A 0.35 mL blood sample is taken from cervical vein by using Heparinized Syringe at 5 minutes, 15 minutes, 30 minutes, 1 hour, 2 hours, 4 hours, 6 hours, 8 hours, and 24 hours after administration. The obtained blood is stored in ice, and after centrifugation at 12,000 rpm for 5 minutes, blood plasma is fractionated. An internal standard solution (100 μL) and acetonitrile (2 mL) was added to 100 μL of plasma, followed by stirring and further centrifugation at 2,500 rpm for 10 minutes. The supernatant was desiccated by a centrifugal thickener and then 150 μL of an aqueous 67% dimethyl sulfoxide solution was added to the residue thereby dissolving again the residue, and 20 μL of the resultant solution was analyzed by LC/MS/MS.
Analysis by LC/MS/MS was carried out under the following conditions.
A curve of the compound concentration in plasma versus the time of each compound was adapted to a 1 or 2 compartment model using pharmacokinetic analysis software WinNonlin (trade name) (ver4.0.1, Pharsight Corporation).

T1 sequence (P61073 whole entry): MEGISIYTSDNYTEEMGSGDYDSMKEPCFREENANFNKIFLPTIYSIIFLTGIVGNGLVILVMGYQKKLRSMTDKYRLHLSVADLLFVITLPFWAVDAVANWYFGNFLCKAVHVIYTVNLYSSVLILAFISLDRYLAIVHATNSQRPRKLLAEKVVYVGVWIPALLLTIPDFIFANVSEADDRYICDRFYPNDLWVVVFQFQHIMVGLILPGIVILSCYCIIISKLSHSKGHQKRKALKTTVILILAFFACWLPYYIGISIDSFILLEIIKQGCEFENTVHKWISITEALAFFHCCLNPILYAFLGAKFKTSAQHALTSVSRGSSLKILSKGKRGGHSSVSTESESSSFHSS

| Compound | IC50 (CXCR4) | IC90 value (concentration showing a 90% inhibitory ratio of HIV-1 reverse transcriptase activity) [1] | T90 [3] | phospholipidosis induction activity (determination) [2] |
| --- | --- | --- | --- | --- |
| CCC(CC)N1CCC2(CCN(Cc3ccc(CN(Cc4ncc[nH]4)Cc4ncc[nH]4)cc3)C2)CC1 [b, 1-(4-{[8-[1-ethylpropyl]-2,8-diazaspiro[4.5]deca-2-yl)methyl}phenyl]-N,N-bis(1H-imidazol-2-ylmethyl)methaneamine] | – | – | 12 h | – |
| O=C(O)c1cc(CN(Cc2ncc[nH]2)Cc2ncc[nH]2)ccc1CN1CCC2(CCN(C3CCCCC3)CC2)C1 [d, 5-{[bis(1H-imidazol-2-ylmethyl)amino]methyl}-2-[(8-cyclohexyl-2,8-diazaspiro[4.5]deca-2-yl)methyl]benzenecarboxylic acid] | – | – | 5 h | – |
| CC(C)CN1CCC2(CCN(Cc3ccc(CN(Cc4ncc[nH]4)Cc4ncc[nH]4)cc3)C2)CC1C(=O)O (centres unmarked) [g, 2-(4-{[bis(1H-imidazol-2-ylmethyl)amino]methyl}benzyl)-8-isobutyl-2,8-diazaspiro[4.5]decane-7-carboxylic acid] | – | – | 2 h | – |
| CCCN(CC)CCCCN(CC(=O)O)Cc1ccc(CN(Cc2ncc[nH]2)Cc2nccn2C)cc1 [i] | – | – | 3 h | – |
| CCOC(=O)C1CC2(CCN(Cc3ccc(C(=O)N(Cc4ncc[nH]4)Cc4ncc[nH]4)cc3)CC2)CN1C1CCCCC1 (centres unmarked) [j] | – | – | <1 h | – |
| COC(=O)c1cc(CN(Cc2ncc[nH]2)Cc2ncc[nH]2)ccc1CN1CCC2(CCN(Cc3sccc3C)CC2)C1 [k] | – | – | 14 h | – |
| O=C(O)Cn1ccnc1CN(Cc1ccc(CN2CCC3(CCN(C4CCCCC4)CC3)C2)cc1)Cc1ncc[nH]1 [l] | – | – | 4 h | – |
| CCC(CC)N1CCC2(CCN(CCCn3ccnc3CN(Cc3cccc(CC(=O)O)c3)Cc3ncc[nH]3)C2)CC1 [m] | – | – | 4 h | – |

Further lines, with some results ahead:

| IC50 (CXCR4) | IC90 value (concentration showing a 90% inhibitory ratio of HIV-1 reverse transcriptase activity) [1] | T90 [3] | Compound | phospholipidosis induction activity (determination) [2] |
| --- | --- | --- | --- | --- |
| 3 nM | 0.27 nM | 91 h | CCC(CC)N1CCC2(CC1)CC(C(=O)O)N(Cc1ccc(CN(Cc3ncc[nH]3)Cc3ncc[nH]3)cc1)C2 (centres unmarked) [Example 5(5), 2-(4-{[bis(1H-imidazol-2-ylmethyl)amino]methyl}benzyl)-8-(1-ethylpropyl)-2,8-diazaspiro[4.5]decane-3-carboxylic acid] | negative |
| 3.3 nM | 0.27 nM | – | CCC(CC)N1CCC2(CC1)C[C@H](C(=O)O)N(Cc1ccc(CN(Cc3ncc[nH]3)Cc3ncc[nH]3)cc1)C2 [Example 32(6), (3R)-2-(4-{[bis(1H-imidazol-2-ylmethyl)amino]methyl}benzyl)-8-(1-ethylpropyl)-2,8-diazaspiro[4.5]decane-3-carboxylic acid] | negative |
| 3.2 nM | 0.23 nM | – | CCC(CC)N1CCC2(CC1)C[C@@H](C(=O)O)N(Cc1ccc(CN(Cc3ncc[nH]3)Cc3ncc[nH]3)cc1)C2 [Example 32(7), (3S)-2-(4-{[bis(1H-imidazol-2-ylmethyl)amino]methyl}benzyl)-8-(1-ethylpropyl)-2,8-diazaspiro[4.5]decane-3-carboxylic acid] | negative |
| 11.3 nM | – | – | CCC(CC)N1CCC2(CC1)C[C@H](C(=O)O)N(Cc1ccc(CN(Cc3ncc[nH]3)Cc3nccn3C)cc1)C2 [Example 37(6), (3R)-8-(1-ethylpropyl)-2-[4-({(1H-imidazol-2-ylmethyl)[(1-methyl-1H-imidazol-2-yl)methyl]amino}methyl)benzyl]-2,8-diazaspiro[4.5]decane-3-carboxylic acid] | negative |
| 11.1 nM | – | – | CCC(CC)N1CCC2(CC1)C[C@@H](C(=O)O)N(Cc1ccc(CN(Cc3ncc[nH]3)Cc3nccn3C)cc1)C2 [Example 37(7), (3S)-8-(1-ethylpropyl)-2-[4-({(1H-imidazol-2-ylmethyl)[(1-methyl-1H-imidazol-2-yl)methyl]amino}methyl)benzyl]-2,8-diazaspiro[4.5]decane-3-carboxylic acid] | negative |
| – | – | 7 h | CCC(CC)N1CCC2(CC1)C[C@@H](C(N)=O)N(Cc1ccc(CN(Cc3ncc[nH]3)Cc3ncc[nH]3)cc1)C2 [c, (3S)-2-(4-{[bis(1H-imidazol-2-ylmethyl)amino]methyl}benzyl)-8-(1-ethylpropyl)-2,8-diazaspiro[4.5]decane-3-carboxyamide] | – |
| – | – | 17 h | CCC(CC)N1CCC2(CC1)CN(Cc1ccc(CN(Cc3ncc[nH]3)Cc3ncc[nH]3)cc1)CC2C(=O)O (centres unmarked) [e, 2-(4-{[bis(1H-imidazol-2-ylmethyl)amino]methyl}benzyl)-8-(1-ethylpropyl)-2,8-diazaspiro[4.5]decane-4-carboxylic acid] | – |
| – | – | 6 h | CCC(CC)N1CCC2(CC1)CCN(Cc1ccc(CN(Cc3ncc[nH]3)Cc3ncc[nH]3)cc1)C2C(=O)O (centres unmarked) [f, 2-(4-{[bis(1H-imidazol-2-ylmethyl)amino]methyl}benzyl)-8-(1-ethylpropyl)-2,8-diazaspiro[4.5]decane-1-carboxylic acid] | – |
| – | – | 1.2 h | CCC(CC)N1CC2(CCN(Cc3ccc(CN(Cc4ncc[nH]4)Cc4ncc[nH]4)cc3)CC2)CC1C(=O)O (centres unmarked) [h, 8-(4-{[bis(1H-imidazol-2-ylmethyl)amino]methyl}benzyl)-2-(1-ethylpropyl)-2,8-diazaspiro[4.5]decane-3-carboxylic acid] | – |
